ChEMBL document CHEMBL1201862, “PubChem BioAssay data set” (2004)
Activity calls are given as the source filed them.

Key:
Protein Rev = Protein Rev (Human immunodeficiency virus type 1 group M subtype B (isolate WMJ22)(HIV-1), UniProt P05866); assay: HIV-1 Rev-RRE RNA binding disruptors, dose response, biochemical, protein-RNA interaction (AID 842); parameters: species or system Human immunodeficiency virus 1
[1] = inhibitors of firefly luciferase expression or activity, dose response, H4 neuroglioma cells, luminescence (AID 1990); assay type: functional, cell-based
[2] = luciferase reporter signal reduction – luminescence, H4-C neuroglioblastoma cells, dose response (AID 2458); assay type: functional, cell-based;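 note: H4 neuroglioblastoma cells stably carrying a luciferase reporter gene fusion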
BJ [3] = assay: cytotoxicity toward BJ-TERT fibroblasts, dose response, cell-based, RAS-independent, luminescence (AID 1933); assay type: functional; conditions: Homo sapiens
[4] = molecular target: Luciferin 4-monooxygenase (Photinus pyralis, UniProt P08659); assay: Counter Screen for Luciferase-based Assay Positives. [Related pubchem assays: 620, 618, 411 ]
[5] = molecular target: Glyceraldehyde-3-phosphate dehydrogenase (Homo sapiens, UniProt P04406)
cells = assay type: functional, cell-based
[6] = Luminescence Cell-Based Dose Response HTS to Identify Inhibitors of 5'UTR Stem-Loop Driven Prion Protein mRNA Translation in H4 Neuroglioblastoma Cells. [Related pubchem assays: 1827 (Project Summary), 1813 (Primary HTS)]; assay type: functional
[7] = inhibitors of SNCA 5'UTR-driven reporter translation, confirmation, H4 neuroglioma cells, luminescence (AID 1988); assay type: functional, cell-based
BJ [8] = assay: cells; assay type: functional, cell-based; conditions: Homo sapiens
[9] = Luminescence-based counterscreen assay for KLF5 inhibitors: dose response cell-based high throughput screening assay to identify cytotoxic compounds using the IEC-6 intestinal epithelial cell line. [Related pubchem assays: 1700 (Primary screen.), 1834 (Confirmation screen.), 1858 (Summary AID.), 1905 (Counterscreen.)]; assay type: functional
HT-1080 = assay: cytotoxicity in HT1080 fibrosarcoma cells, cell-based, fluorescence readout (AID 620); assay type: functional; conditions: Homo sapiens
BJ [10] = assay: cytotoxicity toward BJ-TERT-LT-ST fibroblasts, dose response, cell-based, RAS-independent, luminescence (AID 1935); assay type: functional; conditions: Homo sapiens;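 note: BJ fibroblasts immortalized with TERT plus LT and ST oncogenes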
[11] = cytotoxicity toward DRD oncogenic fibroblasts, dose response, cell-based, non-viral oncogenic, luminescence (AID 1934); assay type: functional; conditions: Homo sapiens
[12] = inhibitors of SNCA 5'UTR-driven translation, confirmation, luminescence, H4 neuroglioblastoma cells, dose confirmation (AID 2454); assay type: functional, cell-based;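 note: H4 neuroglioblastoma cells carrying an alpha-synuclein 5'UTR luciferase reporter; potency for inhibition of the luciferase signal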
[13] = molecular target: T1, Microphthalmia-associated transcription factor (Homo sapiens, UniProt O75030); assay: TRPM1 promoter luciferase signal decrease, dose response, MITF inhibitor project, cell-based, SK-MEL-5, cherry-picked, set 3 (AID 493073); assay type: functional
T1 sequence (O75030 whole entry): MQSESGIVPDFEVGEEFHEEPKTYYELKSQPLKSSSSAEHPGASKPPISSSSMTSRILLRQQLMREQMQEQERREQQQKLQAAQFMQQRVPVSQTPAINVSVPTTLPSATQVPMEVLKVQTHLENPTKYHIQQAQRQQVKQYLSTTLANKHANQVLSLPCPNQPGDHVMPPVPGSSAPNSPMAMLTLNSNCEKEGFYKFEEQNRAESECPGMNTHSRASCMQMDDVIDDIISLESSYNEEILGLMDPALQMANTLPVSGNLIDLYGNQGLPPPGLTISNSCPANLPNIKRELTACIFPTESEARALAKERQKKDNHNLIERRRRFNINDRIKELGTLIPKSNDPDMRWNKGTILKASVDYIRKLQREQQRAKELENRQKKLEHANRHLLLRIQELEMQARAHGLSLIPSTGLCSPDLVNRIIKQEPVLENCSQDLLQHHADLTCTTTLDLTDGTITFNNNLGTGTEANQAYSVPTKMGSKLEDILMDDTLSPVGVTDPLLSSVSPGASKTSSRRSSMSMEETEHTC

BJ [14] = assay: cytotoxicity toward Ras-transformed BJeLR fibroblasts, dose response, cell-based, alamar blue fluorescence, cherrypicked samples (AID 2631); assay type: functional; conditions: Homo sapiens;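 note: confirmatory dose-response assay in RAS-dependent BJ fibroblasts engineered with TERT, LT and ST, with cytotoxicity read by fluorescence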
A-375 = assay: MITF: Counter assay: A375 proliferation Measured in Cell-Based System Using Plate Reader - 2084-03_Inhibitor_Dose_DryPowder_Activity. [Related pubchem assays (depositor defined):AID488944]; assay type: functional; conditions: Homo sapiens
[15] = A549 cell cytotoxicity, dose response, cytotoxicity control, plate reader, cherry-pick, antagonist series (AID 743412); assay type: functional, cell-based
[16] = HepG2 cell cytotoxicity, dose response, cytotoxicity control, plate reader, cherry-pick, antagonist series (AID 743416); assay type: functional, cell-based
[17] = LGR2 antagonists, dose response, cell-based, HEK293, CRE-luciferase reporter, cherry pick, set 2 (AID 743343); assay type: functional;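 note: transfected cells were stimulated with diluted bursicon conditioned medium after compound addition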
[18] = MC4R antagonists, dose response, counter-screen for LGR2 antagonist project, cell-based, plate reader, cherry pick (AID 743444); assay type: functional;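 note: transfected HEK 293 cells stimulated with alpha-MSH peptide; potency of inhibitors of the alpha-MSH evoked signal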
[19] = HEK293 cell cytotoxicity, dose response, cytotoxicity control, plate reader, cherry-picked samples (AID 743446); assay type: functional, cell-based
Cytochrome P450 2C9 = Cytochrome P450 2C9 (Homo sapiens, UniProt P11712); conditions: Potency
[20] = molecular target: T2, Mothers against decapentaplegic homolog 3 (Homo sapiens, UniProt P84022); assay: Smad3 binding inhibitors, lysate ELISA, dose response, cell lysate, secondary confirmation, chemiluminescent ELISA, HEK293 lysate (AID 1058); assay type: functional
[21] = polyadenylation inhibitors in yeast reporter, dose response, luminescence, S. cerevisiae SKY197-pL101 (AID 2525); assay type: functional, cell-based
[22] = Luminescence Cell-Based Dose Confirmation HTS to Identify Inhibitors of Polyadenylation.; assay type: functional
[23] = molecular target: T2, Mothers against decapentaplegic homolog 3; assay: SMAD3 transcription factor inhibitors, dose response (AID 715); assay type: functional
[24] = molecular target: Protein-tyrosine kinase 2-beta (Homo sapiens, UniProt Q14289);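 note: potency of inhibitors of PYK2 kinase phosphorylation of poly-GT substrate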
[25] = molecular target: 26S proteasome non-ATPase regulatory subunit 14 (Homo sapiens, UniProt O00487); assay: inhibition of proteasome subunit RPN11 – biochemical, fluorescence polarization, uHTS hits, confirmation (AID 602368); assay type: functional
[26] = molecular target: 72 kDa type IV collagenase (Homo sapiens, UniProt P08253); assay: Dose Response validation of uHTS RPN11 inhibitor hits using a MMP-2 Fluorescence assay.; assay type: functional
Prothrombin = Prothrombin (Bos taurus, UniProt P00735); assay: thrombin inhibition, dose response, biochemical, fluorescence polarization, uHTS hits (AID 602369); assay type: functional

T2 sequence (P84022 whole entry): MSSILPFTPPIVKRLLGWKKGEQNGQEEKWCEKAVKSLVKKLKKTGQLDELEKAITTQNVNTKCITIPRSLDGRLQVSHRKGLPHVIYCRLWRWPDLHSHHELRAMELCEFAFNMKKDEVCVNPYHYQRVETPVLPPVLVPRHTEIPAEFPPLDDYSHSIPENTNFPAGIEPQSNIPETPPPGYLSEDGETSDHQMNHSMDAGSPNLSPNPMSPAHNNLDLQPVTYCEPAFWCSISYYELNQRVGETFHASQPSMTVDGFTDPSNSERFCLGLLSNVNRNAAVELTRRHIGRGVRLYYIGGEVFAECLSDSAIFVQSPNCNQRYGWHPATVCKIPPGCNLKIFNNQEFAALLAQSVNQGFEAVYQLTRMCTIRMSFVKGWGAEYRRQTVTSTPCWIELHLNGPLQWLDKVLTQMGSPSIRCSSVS
Chain of Protein-tyrosine kinase 2-beta (Q14289 whole entry): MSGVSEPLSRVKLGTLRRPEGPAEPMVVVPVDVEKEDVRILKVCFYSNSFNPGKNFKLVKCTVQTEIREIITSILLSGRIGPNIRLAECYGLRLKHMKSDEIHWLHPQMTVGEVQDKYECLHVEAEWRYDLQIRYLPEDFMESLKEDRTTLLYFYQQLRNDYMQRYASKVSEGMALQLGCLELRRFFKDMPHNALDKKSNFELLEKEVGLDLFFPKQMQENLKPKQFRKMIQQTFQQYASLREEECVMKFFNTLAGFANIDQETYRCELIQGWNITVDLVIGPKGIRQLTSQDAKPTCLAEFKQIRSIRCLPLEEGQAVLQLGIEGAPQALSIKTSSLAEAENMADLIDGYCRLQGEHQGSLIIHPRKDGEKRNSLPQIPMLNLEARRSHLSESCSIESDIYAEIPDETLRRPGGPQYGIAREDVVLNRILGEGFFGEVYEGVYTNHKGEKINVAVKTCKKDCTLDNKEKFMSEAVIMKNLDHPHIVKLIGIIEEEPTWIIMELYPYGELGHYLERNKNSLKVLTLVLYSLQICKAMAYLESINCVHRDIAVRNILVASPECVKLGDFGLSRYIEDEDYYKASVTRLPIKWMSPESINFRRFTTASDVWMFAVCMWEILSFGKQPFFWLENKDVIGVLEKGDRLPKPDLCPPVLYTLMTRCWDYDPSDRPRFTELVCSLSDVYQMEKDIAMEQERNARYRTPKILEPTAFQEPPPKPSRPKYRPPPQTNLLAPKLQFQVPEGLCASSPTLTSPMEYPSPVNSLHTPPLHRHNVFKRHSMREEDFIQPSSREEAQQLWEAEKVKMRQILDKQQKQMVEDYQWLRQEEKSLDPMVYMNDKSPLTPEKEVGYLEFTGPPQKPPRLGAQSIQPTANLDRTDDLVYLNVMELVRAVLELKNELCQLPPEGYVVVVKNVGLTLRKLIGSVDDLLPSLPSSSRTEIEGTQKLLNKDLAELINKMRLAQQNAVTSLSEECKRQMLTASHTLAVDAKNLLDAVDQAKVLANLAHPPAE
Chain of Luciferin 4-monooxygenase (P08659 whole entry): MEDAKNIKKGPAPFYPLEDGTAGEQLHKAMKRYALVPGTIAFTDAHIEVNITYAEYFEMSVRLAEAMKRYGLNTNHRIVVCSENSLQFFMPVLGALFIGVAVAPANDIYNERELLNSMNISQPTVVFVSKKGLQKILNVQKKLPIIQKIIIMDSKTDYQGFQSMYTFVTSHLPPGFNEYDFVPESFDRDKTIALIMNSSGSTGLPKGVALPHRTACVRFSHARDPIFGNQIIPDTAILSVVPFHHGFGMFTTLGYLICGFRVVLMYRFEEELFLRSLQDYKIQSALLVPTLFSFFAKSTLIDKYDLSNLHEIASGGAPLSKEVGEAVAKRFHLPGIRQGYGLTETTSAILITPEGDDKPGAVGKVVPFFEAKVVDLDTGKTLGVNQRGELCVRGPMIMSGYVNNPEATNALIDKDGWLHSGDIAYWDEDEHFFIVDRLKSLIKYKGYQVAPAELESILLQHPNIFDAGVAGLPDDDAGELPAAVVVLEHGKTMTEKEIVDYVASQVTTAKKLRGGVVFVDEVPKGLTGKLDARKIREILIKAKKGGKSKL
Chain of Glyceraldehyde-3-phosphate dehydrogenase (P04406 whole entry): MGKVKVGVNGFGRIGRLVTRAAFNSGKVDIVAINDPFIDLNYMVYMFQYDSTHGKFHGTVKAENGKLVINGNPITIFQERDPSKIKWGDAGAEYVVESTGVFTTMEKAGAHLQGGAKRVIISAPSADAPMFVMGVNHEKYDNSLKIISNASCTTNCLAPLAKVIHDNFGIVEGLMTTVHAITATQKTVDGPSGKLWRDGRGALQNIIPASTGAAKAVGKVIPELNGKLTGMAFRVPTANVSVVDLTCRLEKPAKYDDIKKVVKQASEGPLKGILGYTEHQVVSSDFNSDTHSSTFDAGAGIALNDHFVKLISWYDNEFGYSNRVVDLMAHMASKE
Chain of 26S proteasome non-ATPase regulatory subunit 14 (O00487 whole entry): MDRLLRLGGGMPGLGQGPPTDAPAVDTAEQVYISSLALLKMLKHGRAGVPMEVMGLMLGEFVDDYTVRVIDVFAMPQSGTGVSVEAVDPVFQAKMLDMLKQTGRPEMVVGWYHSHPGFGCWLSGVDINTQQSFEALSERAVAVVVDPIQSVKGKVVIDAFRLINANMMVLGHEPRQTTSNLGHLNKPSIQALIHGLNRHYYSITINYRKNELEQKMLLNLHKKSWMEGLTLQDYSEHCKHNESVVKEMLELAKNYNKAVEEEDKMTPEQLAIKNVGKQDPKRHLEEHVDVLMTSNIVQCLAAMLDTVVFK
Chain of Cytochrome P450 2C9 (P11712 whole entry): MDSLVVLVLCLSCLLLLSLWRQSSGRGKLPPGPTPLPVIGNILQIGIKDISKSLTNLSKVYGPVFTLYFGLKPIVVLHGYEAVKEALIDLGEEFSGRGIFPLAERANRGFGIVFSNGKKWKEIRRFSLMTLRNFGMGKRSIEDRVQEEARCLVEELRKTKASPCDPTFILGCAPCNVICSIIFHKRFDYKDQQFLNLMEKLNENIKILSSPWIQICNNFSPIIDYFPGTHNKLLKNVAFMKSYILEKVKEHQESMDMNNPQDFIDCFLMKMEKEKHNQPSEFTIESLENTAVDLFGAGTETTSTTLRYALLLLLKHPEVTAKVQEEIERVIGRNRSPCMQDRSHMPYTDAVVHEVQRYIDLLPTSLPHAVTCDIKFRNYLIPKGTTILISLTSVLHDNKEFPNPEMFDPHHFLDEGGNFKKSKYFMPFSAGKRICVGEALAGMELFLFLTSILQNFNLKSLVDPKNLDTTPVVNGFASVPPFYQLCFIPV
Chain of Protein Rev (P05866 whole entry): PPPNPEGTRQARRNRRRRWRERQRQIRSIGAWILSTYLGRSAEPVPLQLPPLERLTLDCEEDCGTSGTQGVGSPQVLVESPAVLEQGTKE
Chain of 72 kDa type IV collagenase (P08253 whole entry): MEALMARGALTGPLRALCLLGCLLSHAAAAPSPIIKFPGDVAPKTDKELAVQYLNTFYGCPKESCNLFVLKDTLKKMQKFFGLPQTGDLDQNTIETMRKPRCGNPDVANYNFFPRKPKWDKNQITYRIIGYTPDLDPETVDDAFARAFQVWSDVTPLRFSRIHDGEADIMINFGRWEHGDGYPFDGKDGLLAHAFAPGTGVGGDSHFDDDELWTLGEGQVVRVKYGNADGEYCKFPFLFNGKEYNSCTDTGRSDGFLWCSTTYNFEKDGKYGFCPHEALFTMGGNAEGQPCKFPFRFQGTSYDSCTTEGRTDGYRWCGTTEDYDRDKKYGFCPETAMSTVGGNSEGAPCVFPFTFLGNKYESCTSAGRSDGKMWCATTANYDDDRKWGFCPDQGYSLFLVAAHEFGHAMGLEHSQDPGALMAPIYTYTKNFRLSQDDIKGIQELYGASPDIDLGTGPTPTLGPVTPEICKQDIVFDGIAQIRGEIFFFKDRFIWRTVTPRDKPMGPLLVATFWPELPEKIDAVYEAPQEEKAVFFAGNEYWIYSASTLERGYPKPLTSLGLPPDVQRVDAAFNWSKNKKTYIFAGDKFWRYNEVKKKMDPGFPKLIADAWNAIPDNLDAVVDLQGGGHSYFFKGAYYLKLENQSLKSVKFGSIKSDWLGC

For `CC(C)CN=c1cc(-c2ccccc2)oc2ccc(Cl)cc12`, the IC50 (Protein Rev) was > 79.4 µM (not active).

In the case of `Cc1ccc(-c2nnc(SCC(=O)Nc3ccccc3F)o2)cc1`, the EC50 [1] is reported as < 0.195 µM (active), the EC50 [2] is reported as > 12 µM (inconclusive) and the EC50 (BJ [3]) is reported as 10.2 µM (active). For the same compound, the EC50 [4] was 9.52 µM (active), the IC50 [5] was > 100 µM (not active) and the EC50 (cells) was 0.839 µM (active). The EC50 [6] was < 0.1 µM (active), the EC50 [7] was < 0.1 µM (active) and the EC50 (BJ [8]) was 6.59 µM (active). The IC50 [9] was 34.7 µM (not active), the EC50 (HT-1080) was > 50 µM (not active) and the EC50 (BJ [10]) was 21.7 µM (active). For the same compound, the EC50 [11] was 7.36 µM (inconclusive), the EC50 [12] was > 12 µM (inconclusive) and the AC50 [13] was 2.3 µM (active). For the same compound, the EC50 (BJ [14]) was > 133 µM (inactive), the AC50 (A-375) was 33.7 µM (active) and the AC50 [15] was 8.7 µM (active). The AC50 [16] was 12.4 µM (active), the AC50 [17] was 7.12 µM (active) and the AC50 [18] was 14.7 µM (active). The AC50 [19] was 9.16 µM (active).

In the case of `CC[C@H](C)C(=O)O[C@@H]1CCC=C2C=C[C@H](C)[C@@H](CC[C@H]3C[C@@H](O)CC(=O)O3)[C@H]21`, the AC50 (Cytochrome P450 2C9) is reported as 39.8 µM (inconclusive).

With `Oc1cc2c(cc1C(c1ccc3c(c1)OCO3)N1CCCCC1)OCO2` (stereo not given) the IC50 [20] was > 40 µM (not active).

In the case of `O=C(Oc1c(-c2ccccc2)c(=O)n2c3c(cccc13)CC2)c1cccc([N+](=O)[O-])c1`, the EC50 [1] is reported as 12 µM (active), the EC50 [21] is reported as 3.89 µM (active) and the EC50 [6] is reported as 12.3 µM (active). The EC50 [7] was 13 µM (active) and the EC50 [22] was 9.78 µM (active).

In the case of `O=C(NCCCN1CCCCCC1)c1ccc(CS(=O)(=O)Cc2ccccc2F)o1`, the IC50 [23] is reported as 4.1 µM (active), the IC50 [24] is reported as 13.1 µM (not active) and the IC50 [25] is reported as 7.28 µM (active). For the same compound, the IC50 [26] was > 100 µM (inactive) and the IC50 (Prothrombin) was 68.8 µM (active).
